{"source": "patent US11034698B2", "about": "“Pyrazolo[ 1,5a]pyrimidine derivatives as IRAK4 modulators” (priority 2017, dated 2021)", "target": "human IRAK4 (Homo sapiens (Human), UniProt Q9NWZ3)", "sequence (Q9NWZ3 whole entry)": "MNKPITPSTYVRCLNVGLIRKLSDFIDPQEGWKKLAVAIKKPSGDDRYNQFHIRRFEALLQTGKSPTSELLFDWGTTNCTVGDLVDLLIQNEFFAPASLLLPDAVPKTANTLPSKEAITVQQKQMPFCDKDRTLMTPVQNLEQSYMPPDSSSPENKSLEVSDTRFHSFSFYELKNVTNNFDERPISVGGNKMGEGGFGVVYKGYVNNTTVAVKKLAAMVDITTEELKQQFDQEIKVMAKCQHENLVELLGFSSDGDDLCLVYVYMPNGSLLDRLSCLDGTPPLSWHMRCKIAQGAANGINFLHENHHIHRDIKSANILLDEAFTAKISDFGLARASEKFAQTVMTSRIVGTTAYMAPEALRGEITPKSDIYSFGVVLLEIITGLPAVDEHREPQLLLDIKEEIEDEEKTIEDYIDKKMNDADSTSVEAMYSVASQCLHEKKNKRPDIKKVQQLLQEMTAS", "assay": "IRAK4 kinase inhibition, Transcreener fluorescence polarization (ADP)", "assay_type": "biochemical", "conditions": "recombinant full-length His6-IRAK4 1.25 nM; 125 uM ATP; 125 uM peptide; 90 min; ATP Km 642 uM; read-out: IRAK4 Ki", "experimental": "Compounds were assayed for inhibition of human IRAK4 and IRAK1 catalytic activity using recombinant enzyme produced from insect cells. Full-length IRAK4 protein, carrying an N-terminal His6-Tag, was obtained from Life Technologies (Carlsbad, Calif., USA). The IRAK1 construct was produced internally and was comprised of IRAK1 residues Arg194 to Ser712, preceded by an NH2-terminal His6 tag and the coding sequence for glutathione-S-transferase.\nKinase activities were assayed using the Transcreener-Fluorecescence polarization platform (BelBrook Labs, Madison, Wis., USA) that measures amounts of the reaction product, ADP.", "note": "Structures can show the parent of a compound that is named as a salt."}
{"smiles": "CC(C)Oc1cc2c(cc1NC(=O)c1cnn3cccnc13)CN([C@H]1CCOC1)C2=O", "note": "[Example 68, (S)-N-(6-Isopropoxy-1-oxo-2-(tetrahydrofuran-3-yl)isoindolin-5-yl)pyrazolo[1,5-a]pyrimidine-3-carboxamide]", "values": [{"measurement": "Ki", "result": 2.5, "unit": "nM"}]}
{"smiles": "CC(C)(O)[C@H](F)CN1Cc2cc(NC(=O)c3cnn4cccnc34)c(OC3CCNCC3)cc2C1=O", "note": "[Example 70, (R)-N-(2-(2-Fluoro-3-hydroxy-3-methylbutyl)-1-oxo-6-(piperidin-4-yloxy)isoindolin-5-yl)pyrazolo[1,5-a]pyrimidine-3-carboxamide]", "values": [{"measurement": "Ki", "result": 0.7, "unit": "nM"}]}
{"smiles": "CC(C)(O)[C@H](F)CN1Cc2cc(NC(=O)c3cnn4cccnc34)c(OC[C@@H]3CNC(=O)C3)cc2C1=O", "note": "[Example 71, N-[2-[(2R)-2-Fluoro-3-hydroxy-3-methyl-butyl]-1-oxo-6-[[(3S)-5-oxopyrrolidin-3-yl]methoxy]isoindolin-5-yl]pyrazolo[1,5-a]pyrimidine-3-carboxamide]", "values": [{"measurement": "Ki", "result": 3.2, "unit": "nM"}]}
{"smiles": "CC(C)(O)[C@H](F)CN1Cc2cc(NC(=O)c3cnn4cccnc34)c(OC3CNC3)cc2C1=O", "note": "[Example 73, N-[6-(Azetidin-3-yloxy)-2-[(2R)-2-fluoro-3-hydroxy-3-methyl-butyl]-1-oxo-isoindolin-5-yl]pyrazolo[1,5-a]pyrimidine-3-carboxamide hydrochloride]", "values": [{"measurement": "Ki", "result": 3.7, "unit": "nM"}]}
{"smiles": "CC(C)(O)[C@H](F)CN1Cc2cc(NC(=O)c3cnn4cccnc34)c(OC3CC3)cc2C1=O", "note": "[Example 77, (R)—N-(6-Cyclopropoxy-2-(2-fluoro-3-hydroxy-3-methylbutyl)-1-oxoisoindolin-5-yl)pyrazolo[1,5-a]pyrimidine-3-carboxamide]", "values": [{"measurement": "Ki", "result": 0.63, "unit": "nM"}]}
{"smiles": "CC(C)Oc1cc2c(cc1NC(=O)c1cnn3cccnc13)CN(C[C@@H](F)C(C)(C)O)C2=O", "note": "[Example 78, N-[2-[(2R)-2-Fluoro-3-hydroxy-3-methyl-butyl]-6-isopropoxy-1-oxo-isoindolin-5-yl]pyrazolo[1,5-a]pyrimidine-3-carboxamide]", "values": [{"measurement": "Ki", "result": 0.17, "unit": "nM"}]}
{"smiles": "CC(C)(O)[C@H](F)CN1Cc2cc(NC(=O)c3cnn4cccnc34)c(OCC3COC3)cc2C1=O", "note": "[Example 79, (R)-N-(2-(2-Fluoro-3-hydroxy-3-methylbutyl)-6-(oxetan-3-ylmethoxy)-1-oxoisoindolin-5-yl)pyrazolo[1,5-a]pyrimidine-3-carboxamide]", "values": [{"measurement": "Ki", "result": 0.97, "unit": "nM"}]}
{"smiles": "CC(C)(O)[C@H](F)CN1Cc2cc(NC(=O)c3cnn4cccnc34)c(OC3CCCC3)cc2C1=O", "note": "[Example 80, (R)-N-(6-(Cyclopentyloxy)-2-(2-fluoro-3-hydroxy-3-methylbutyl)-1-oxoisoindolin-5-yl)pyrazolo[1,5-a]pyrimidine-3-carboxamide]", "values": [{"measurement": "Ki", "result": 0.97, "unit": "nM"}]}
{"smiles": "Cc1cnc2c(C(=O)Nc3cc4c(cc3OC(C)C)C(=O)N(C[C@@H](F)C(C)(C)O)C4)cnn2c1", "note": "[Example 81, (R)-N-(2-(2-Fluoro-3-hydroxy-3-methylbutyl)-6-isopropoxy-1-oxoisoindolin-5-yl)-6-methylpyrazolo[1,5-a]pyrimidine-3-carboxamide]", "values": [{"measurement": "Ki", "result": 0.42, "unit": "nM"}]}
{"smiles": "CCOc1cc2c(cc1NC(=O)c1cnn3cccnc13)CN(C[C@@H](F)C(C)(C)O)C2=O", "note": "[Example 82, (R)-N-(6-Ethoxy-2-(2-fluoro-3-hydroxy-3-methylbutyl)-1-oxoisoindolin-5-yl)pyrazolo[1,5-a]pyrimidine-3-carboxamide]", "values": [{"measurement": "Ki", "result": 0.37, "unit": "nM"}]}
{"smiles": "CC(C)(O)[C@H](F)CN1Cc2cc(NC(=O)c3cnn4cccnc34)c(O[C@@H]3CCOC3)cc2C1=O", "note": "[Example 83, N-(2-((R)-2-Fluoro-3-hydroxy-3-methylbutyl)-1-oxo-6-(((R)-tetrahydrofuran-3-yl)oxy)isoindolin-5-yl)pyrazolo[1,5-a]pyrimidine-3-carboxamide]", "values": [{"measurement": "Ki", "result": 0.71, "unit": "nM"}]}
{"smiles": "CC(C)(O)[C@H](F)CN1Cc2cc(NC(=O)c3cnn4cccnc34)c(OC3CCOCC3)cc2C1=O", "note": "[Example 85, (R)-N-(2-(2-Fluoro-3-hydroxy-3-methylbutyl)-1-oxo-6-((tetrahydro-2H-pyran-4-yl)oxy)isoindolin-5-yl)pyrazolo[1,5-a]pyrimidine-3-carboxamide]", "values": [{"measurement": "Ki", "result": 1.8, "unit": "nM"}]}
{"smiles": "COc1cc2c(cc1NC(=O)c1cnn3cccnc13)CN(C[C@@H](F)C(C)(C)O)C2=O", "note": "[Example 86, (R)-N-(2-(2-Fluoro-3-hydroxy-3-methylbutyl)-6-methoxy-1-oxoisoindolin-5-yl)pyrazolo[1,5-a]pyrimidine-3-carboxamide]", "values": [{"measurement": "Ki", "result": 1.3, "unit": "nM"}]}
{"smiles": "CC(C)(O)[C@H](F)CN1Cc2cc(NC(=O)c3cnn4cccnc34)c(OC3COC3)cc2C1=O", "note": "[Example 87, (R)-N-(2-(2-Fluoro-3-hydroxy-3-methylbutyl)-6-(oxetan-3-yloxy)-1-oxoisoindolin-5-yl)pyrazolo[1,5-a]pyrimidine-3-carboxamide]", "values": [{"measurement": "Ki", "result": 0.59, "unit": "nM"}]}
{"smiles": "CC(C)(O)[C@H](F)CN1Cc2cc(NC(=O)c3cnn4cccnc34)c(OC(F)F)cc2C1=O", "note": "[Example 88, (R)-N-(6-(Difluoromethoxy)-2-(2-fluoro-3-hydroxy-3-methylbutyl)-1-oxoisoindolin-5-yl)pyrazolo[1,5-a]pyrimidine-3-carboxamide]", "values": [{"measurement": "Ki", "result": 0.5, "unit": "nM"}]}
{"smiles": "Cn1cc(Oc2cc3c(cc2NC(=O)c2cnn4cccnc24)CN(C[C@@H](F)C(C)(C)O)C3=O)cn1", "note": "[Example 89, (R)-N-(2-(2-Fluoro-3-hydroxy-3-methylbutyl)-6-((1-methyl-1H-pyrazol-4-yl)oxy)-1-oxoisoindolin-5-yl)pyrazolo[1,5-a]pyrimidine-3-carboxamide]", "values": [{"measurement": "Ki", "result": 1.3, "unit": "nM"}]}
{"smiles": "CC(C)(C)Oc1cc2c(cc1NC(=O)c1cnn3cccnc13)CN(C[C@@H](F)C(C)(C)O)C2=O", "note": "[Example 90, (R)-N-(6-(tert-Butoxy)-2-(2-fluoro-3-hydroxy-3-methylbutyl)-1-oxoisoindolin-5-yl)pyrazolo[1,5-a]pyrimidine-3-carboxamide]", "values": [{"measurement": "Ki", "result": 0.61, "unit": "nM"}]}
{"smiles": "CNc1cc2c(cc1NC(=O)c1cnn3cccnc13)CN(C[C@@H](F)C(C)(C)O)C2=O", "note": "[Example 91, N-[2-[(2R)-2-Fluoro-3-hydroxy-3-methyl-butyl]-6-(methylamino)-1-oxo-isoindolin-5-yl]pyrazolo[1,5-a]pyrimidine-3-carboxamide]", "values": [{"measurement": "Ki", "result": 280, "unit": "nM"}]}
{"smiles": "O=C(Nc1cc2c(cc1N1CCOCC1)C(=O)N(CC1CCOCC1)C2)c1cnn2cccnc12", "note": "[Example 92, N-[6-Morpholino-1-oxo-2-(tetrahydropyran-4-ylmethyl)isoindolin-5-yl]pyrazolo[1,5-a]pyrimidine-3-carboxamide]", "values": [{"measurement": "Ki", "result": 3.7, "unit": "nM"}]}
{"smiles": "O=C(Nc1cc2c(cc1N1CCOCC1)C(=O)N(CCN1CCCC1)C2)c1cnn2cccnc12", "note": "[Example 93, N-[6-Morpholino-1-oxo-2-(2-pyrrolidin-1-ylethyl)isoindolin-5-yl]pyrazolo[1,5-a]pyrimidine-3-carboxamide]", "values": [{"measurement": "Ki", "result": 22, "unit": "nM"}]}
{"smiles": "O=C(Nc1cc2c(cc1N1CCOCC1)C(=O)N(C1CC3(COC3)C1)C2)c1cnn2cccnc12", "note": "[Example 94, N-[6-Morpholino-2-(2-oxaspiro[3.3]heptan-6-yl)-1-oxo-isoindolin-5-yl]pyrazolo[1,5-a]pyrimidine-3-carboxamide]", "values": [{"measurement": "Ki", "result": 4.9, "unit": "nM"}]}
{"smiles": "CC(C)N1Cc2cc(NC(=O)c3cnn4cccnc34)c(N(C)C)cc2C1=O", "note": "[Example 95, N-[6-(Dimethylamino)-2-isopropyl-1-oxo-isoindolin-5-yl]pyrazolo[1,5-a]pyrimidine-3-carboxamide]", "values": [{"measurement": "Ki", "result": 1.9, "unit": "nM"}]}
